In ChEMBL document CHEMBL4219106, “Discovery and optimization of tetrahydropyrido[4,3-d]pyrimidine derivatives as novel ATX and EGFR dual inhibitors” (Bioorg Med Chem, 2018):
Active and inactive are the calls of the source. The rule behind the calls is not given here.

Tests used:
[1] = system: NCI-H1975; experiment: Cytotoxicity against human NCI-H1975 cells assessed as reduction in cell viability after 72 hrs by MTT assay; type: functional, cell-based; details: NCI-H1975, 72 h
[2] = Cytotoxicity against human SGC cells assessed as reduction in cell viability after 72 hrs by MTT assay; type: functional, cell-based
[3] = system: A549; experiment: Cytotoxicity against human A549 cells assessed as reduction in cell viability after 72 hrs by MTT assay; type: functional, cell-based; details: A549, 72 h
[4] = system: MKN-45; experiment: Cytotoxicity against human MKN45 cells assessed as reduction in cell viability after 72 hrs by MTT assay; type: functional, cell-based; details: MKN-45, 72 h
[5] = system: RAW264.7; experiment: Anti-inflammatory activity in mouse RAW264.7 cells assessed as inhibition of LPS-induced NO production by measuring NO level at 10 ug/ml preincubated for 1 hr followed by LPS-stimulation measured after 24 hrs by Griess assay; type: functional
[6] = system: RAW264.7; experiment: Anti-inflammatory activity in mouse RAW264.7 cells assessed as inhibition of LPS-induced NO production by measuring NO level at 2.5 ug/ml preincubated for 1 hr followed by LPS-stimulation measured after 24 hrs by Griess assay; type: functional
[7] = system: RAW264.7; experiment: Anti-inflammatory activity in mouse RAW264.7 cells assessed as inhibition of LPS-induced NO production by measuring NO level at 5 ug/ml preincubated for 1 hr followed by LPS-stimulation measured after 24 hrs by Griess assay; type: functional
[8] = Antifibrotic activity against Wistar rat cardiac fibroblasts assessed as inhibition of cell proliferation at 20 uM after 12 hrs by MTT assay relative to control; type: functional
[9] = target: Vascular endothelial growth factor receptor 2 (Homo sapiens, UniProt P35968); experiment: Inhibition of VEGFR2 (unknown origin) using peptide substrate after 60 mins by HTRF assay
Vascular endothelial growth factor receptor 2, sequence (P35968 whole entry): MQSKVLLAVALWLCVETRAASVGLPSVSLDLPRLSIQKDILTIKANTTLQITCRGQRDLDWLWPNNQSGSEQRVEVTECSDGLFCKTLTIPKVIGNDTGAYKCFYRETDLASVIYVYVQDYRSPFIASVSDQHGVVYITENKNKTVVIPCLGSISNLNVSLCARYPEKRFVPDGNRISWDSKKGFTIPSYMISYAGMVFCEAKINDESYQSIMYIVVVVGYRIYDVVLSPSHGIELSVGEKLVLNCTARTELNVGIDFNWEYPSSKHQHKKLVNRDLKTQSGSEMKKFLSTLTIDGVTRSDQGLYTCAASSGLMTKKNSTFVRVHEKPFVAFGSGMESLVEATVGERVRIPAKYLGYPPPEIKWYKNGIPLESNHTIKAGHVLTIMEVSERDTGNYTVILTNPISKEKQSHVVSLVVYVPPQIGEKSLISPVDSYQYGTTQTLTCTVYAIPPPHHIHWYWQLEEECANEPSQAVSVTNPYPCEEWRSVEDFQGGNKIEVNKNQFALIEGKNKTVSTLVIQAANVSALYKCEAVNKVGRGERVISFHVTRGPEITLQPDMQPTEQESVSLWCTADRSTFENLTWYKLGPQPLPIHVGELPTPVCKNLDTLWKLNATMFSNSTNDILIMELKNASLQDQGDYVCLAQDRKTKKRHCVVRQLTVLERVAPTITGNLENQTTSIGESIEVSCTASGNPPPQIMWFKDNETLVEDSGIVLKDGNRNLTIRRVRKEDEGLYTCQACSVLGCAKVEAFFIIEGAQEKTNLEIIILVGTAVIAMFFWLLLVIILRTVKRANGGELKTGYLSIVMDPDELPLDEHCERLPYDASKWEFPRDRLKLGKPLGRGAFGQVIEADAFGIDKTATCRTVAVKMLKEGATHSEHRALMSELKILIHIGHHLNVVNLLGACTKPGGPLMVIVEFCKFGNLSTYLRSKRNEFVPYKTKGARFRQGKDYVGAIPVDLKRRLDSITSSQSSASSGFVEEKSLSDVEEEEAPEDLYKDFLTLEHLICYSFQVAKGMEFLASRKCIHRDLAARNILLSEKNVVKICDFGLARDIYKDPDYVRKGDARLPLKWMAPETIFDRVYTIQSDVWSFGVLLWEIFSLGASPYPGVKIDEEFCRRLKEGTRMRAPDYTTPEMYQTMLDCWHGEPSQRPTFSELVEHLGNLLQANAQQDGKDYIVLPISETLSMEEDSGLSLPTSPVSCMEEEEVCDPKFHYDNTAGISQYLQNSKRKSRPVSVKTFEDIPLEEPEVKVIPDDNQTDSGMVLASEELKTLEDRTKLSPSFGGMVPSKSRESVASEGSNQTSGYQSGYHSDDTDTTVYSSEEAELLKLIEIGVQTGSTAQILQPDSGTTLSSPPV

[10] = target: Epidermal growth factor receptor (Homo sapiens, UniProt P00533); experiment: Inhibition of EGFR (unknown origin) using peptide substrate after 60 mins by HTRF assay
Epidermal growth factor receptor (Homo sapiens, UniProt P00533), sequence (P00533 whole entry): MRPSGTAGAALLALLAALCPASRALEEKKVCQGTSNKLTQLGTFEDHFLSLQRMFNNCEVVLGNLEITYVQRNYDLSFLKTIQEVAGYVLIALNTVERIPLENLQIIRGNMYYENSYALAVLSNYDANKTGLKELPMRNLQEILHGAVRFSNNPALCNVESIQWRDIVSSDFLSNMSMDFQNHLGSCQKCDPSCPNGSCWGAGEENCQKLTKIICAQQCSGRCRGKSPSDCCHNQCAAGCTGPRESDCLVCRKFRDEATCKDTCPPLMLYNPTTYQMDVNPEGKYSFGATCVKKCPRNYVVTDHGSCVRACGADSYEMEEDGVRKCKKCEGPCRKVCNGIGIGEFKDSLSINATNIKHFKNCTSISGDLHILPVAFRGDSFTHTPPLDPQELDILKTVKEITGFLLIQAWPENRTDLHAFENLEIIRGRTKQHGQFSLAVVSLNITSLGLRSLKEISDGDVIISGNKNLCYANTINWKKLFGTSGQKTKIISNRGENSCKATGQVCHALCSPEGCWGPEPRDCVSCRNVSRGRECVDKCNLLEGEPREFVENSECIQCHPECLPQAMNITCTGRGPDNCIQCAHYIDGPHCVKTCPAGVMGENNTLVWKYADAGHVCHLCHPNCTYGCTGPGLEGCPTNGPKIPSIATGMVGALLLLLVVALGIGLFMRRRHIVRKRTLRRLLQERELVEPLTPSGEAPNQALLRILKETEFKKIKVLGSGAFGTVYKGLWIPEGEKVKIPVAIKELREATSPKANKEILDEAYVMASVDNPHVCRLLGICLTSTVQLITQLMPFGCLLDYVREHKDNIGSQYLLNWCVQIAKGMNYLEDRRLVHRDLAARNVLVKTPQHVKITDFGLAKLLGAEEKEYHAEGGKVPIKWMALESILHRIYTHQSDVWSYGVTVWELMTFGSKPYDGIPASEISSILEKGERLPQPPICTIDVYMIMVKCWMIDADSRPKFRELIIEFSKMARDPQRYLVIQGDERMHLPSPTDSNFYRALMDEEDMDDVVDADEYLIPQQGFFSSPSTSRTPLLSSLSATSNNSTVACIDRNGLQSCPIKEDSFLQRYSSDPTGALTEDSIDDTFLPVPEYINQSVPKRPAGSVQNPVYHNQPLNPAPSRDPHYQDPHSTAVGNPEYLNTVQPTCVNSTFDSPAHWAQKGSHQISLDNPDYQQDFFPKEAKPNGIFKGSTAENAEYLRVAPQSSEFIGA

[11] = Inhibition of glycosylated human ATX using substrate FS-3 preincubated for 45 mins followed by substrate addition measured after 45 mins by fluorescence assay
[12] = Antifibrotic activity against TGF-induced Wistar rat cardiac fibroblasts assessed as inhibition of cell proliferation after 12 hrs by MTT assay; type: functional
[13] = system: RAW264.7; experiment: Anti-inflammatory activity in mouse RAW264.7 cells assessed as inhibition of LPS-induced TNFalpha mRNA level preincubated for 2 hrs followed by LPS-stimulation measured after 8 hrs by RT-PCR method; type: functional, cell-based
[14] = system: RAW264.7; experiment: Anti-inflammatory activity in mouse RAW264.7 cells assessed as inhibition of LPS-induced TNFalpha mRNA level at 5 ug/ml preincubated for 2 hrs followed by LPS-stimulation measured after 8 hrs by RT-PCR method relative to control; type: functional
[15] = system: RAW264.7; experiment: Anti-inflammatory activity in mouse RAW264.7 cells assessed as inhibition of LPS-induced TGFbeta mRNA level at 5 ug/ml preincubated for 2 hrs followed by LPS-stimulation measured after 8 hrs by RT-PCR method relative to control; type: functional
[16] = system: RAW264.7; experiment: Anti-inflammatory activity in mouse RAW264.7 cells assessed as inhibition of LPS-induced TGFbeta mRNA level preincubated for 2 hrs followed by LPS-stimulation measured after 8 hrs by RT-PCR method; type: functional, cell-based
[17] = system: RAW264.7; experiment: Anti-inflammatory activity in mouse RAW264.7 cells assessed as inhibition of LPS-induced TGFbeta mRNA level at 10 ug/ml preincubated for 2 hrs followed by LPS-stimulation measured after 8 hrs by RT-PCR method relative to control; type: functional
[18] = system: RAW264.7; experiment: Anti-inflammatory activity in mouse RAW264.7 cells assessed as inhibition of LPS-induced TNFalpha mRNA level at 2.5 ug/ml preincubated for 2 hrs followed by LPS-stimulation measured after 8 hrs by RT-PCR method relative to control; type: functional
[19] = system: RAW264.7; experiment: Anti-inflammatory activity in mouse RAW264.7 cells assessed as inhibition of LPS-induced TNFalpha mRNA level at 10 ug/ml preincubated for 2 hrs followed by LPS-stimulation measured after 8 hrs by RT-PCR method relative to control; type: functional
[20] = system: RAW264.7; experiment: Anti-inflammatory activity in mouse RAW264.7 cells assessed as inhibition of LPS-induced TGFbeta mRNA level at 2.5 ug/ml preincubated for 2 hrs followed by LPS-stimulation measured after 8 hrs by RT-PCR method relative to control; type: functional
[21] = target: Epidermal growth factor receptor (Homo sapiens, UniProt P00533, L858R/T790M); experiment: Inhibition of EGFR T790M/L858R double mutant (unknown origin) using peptide substrate after 60 mins by HTRF assay
Epidermal growth factor receptor (Homo sapiens, UniProt P00533, L858R/T790M), sequence (P00533 25-1210 T790M/L858R limits assumed): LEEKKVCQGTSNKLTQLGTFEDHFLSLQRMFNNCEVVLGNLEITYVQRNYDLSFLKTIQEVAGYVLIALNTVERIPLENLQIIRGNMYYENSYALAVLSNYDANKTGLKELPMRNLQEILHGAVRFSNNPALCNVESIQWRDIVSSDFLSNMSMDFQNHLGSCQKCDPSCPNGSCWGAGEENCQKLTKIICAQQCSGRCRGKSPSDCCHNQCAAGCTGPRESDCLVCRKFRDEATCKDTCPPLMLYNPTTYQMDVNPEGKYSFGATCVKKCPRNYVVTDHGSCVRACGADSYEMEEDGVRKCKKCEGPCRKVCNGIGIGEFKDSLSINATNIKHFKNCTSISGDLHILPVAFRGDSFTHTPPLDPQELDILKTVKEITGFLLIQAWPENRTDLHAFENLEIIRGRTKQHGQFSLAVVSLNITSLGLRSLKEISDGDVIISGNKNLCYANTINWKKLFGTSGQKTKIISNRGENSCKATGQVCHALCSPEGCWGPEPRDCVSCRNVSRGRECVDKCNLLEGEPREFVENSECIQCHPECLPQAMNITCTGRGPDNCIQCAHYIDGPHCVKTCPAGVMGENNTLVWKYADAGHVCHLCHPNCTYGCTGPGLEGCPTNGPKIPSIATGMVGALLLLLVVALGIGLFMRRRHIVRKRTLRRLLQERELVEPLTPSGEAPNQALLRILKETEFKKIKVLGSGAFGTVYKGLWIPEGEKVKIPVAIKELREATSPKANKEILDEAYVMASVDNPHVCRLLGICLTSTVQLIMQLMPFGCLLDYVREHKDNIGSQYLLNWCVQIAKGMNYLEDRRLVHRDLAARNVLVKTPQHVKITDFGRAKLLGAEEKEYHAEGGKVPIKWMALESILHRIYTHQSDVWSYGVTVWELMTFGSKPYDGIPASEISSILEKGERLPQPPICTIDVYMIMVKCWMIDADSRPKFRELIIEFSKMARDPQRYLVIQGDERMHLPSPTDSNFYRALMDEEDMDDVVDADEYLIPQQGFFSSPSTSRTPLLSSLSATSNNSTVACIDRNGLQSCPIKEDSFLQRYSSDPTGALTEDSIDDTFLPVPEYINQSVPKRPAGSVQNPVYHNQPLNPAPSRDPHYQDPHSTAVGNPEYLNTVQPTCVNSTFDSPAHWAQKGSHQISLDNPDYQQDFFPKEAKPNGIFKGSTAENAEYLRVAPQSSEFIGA

[22] = Inhibition of ATX (unknown origin); parameters: species or system Homo sapiens
[23] = Potency index, ratio of gefitinib IC50 to compound IC50 for human SGC cells; type: functional
[24] = system: MKN-45; experiment: Potency index, ratio of gefitinib IC50 to compound IC50 for human MKN45 cells; type: functional
[25] = system: A549; experiment: Potency index, ratio of gefitinib IC50 to compound IC50 for human A549 cells; type: functional

| SMILES | IC50 [1] [µM] | IC50 [2] [µM] | IC50 [3] [µM] | IC50 [4] [µM] | inhibition at 20 µM [8] [%] | further results |
| --- | --- | --- | --- | --- | --- | --- |
| O=C(N/N=C/c1ccccc1)N1CCc2ncnc(Nc3cccc(Br)c3)c2C1 | 37.8 | 16.4 | 22.7 | 22.4 | – | Activity [5]: <1.9 µM |
| O=C(N/N=C/c1ccc(F)cc1)N1CCc2ncnc(Nc3cccc(Br)c3)c2C1 | 37.6 | 1.79 | 2.27 | 2.49 | – | inhibition [6]: Active; inhibition [7]: Active; inhibition [5]: Active |
| O=C(N/N=C/c1ccccc1)N1CCc2ncnc(Nc3ccc(F)c(Cl)c3)c2C1 | 28.8 | 7.47 | 31.5 | 22.9 | – | – |
| N#Cc1ccc(/C=N/NC(=O)N2CCc3ncnc(Nc4ccc(F)c(Cl)c4)c3C2)cc1 | 67.5 | 35.8 | 42.6 | 52.3 | – | – |
| O=C(N/N=C/c1cccc(Br)c1)N1CCc2ncnc(Nc3cccc(Br)c3)c2C1 | – | – | – | – | – | inhibition [6]: Active; inhibition [7]: Active; inhibition [5]: Active |
| O=C(N/N=C/c1cccs1)N1CCc2ncnc(Nc3ccc(F)c(Cl)c3)c2C1 | 33 | 96.3 | > 200 | 57.3 | 83 | IC50 [9]: 237 nM; IC50 [10]: 62.5 nM; Activity [5]: <1.9 µM |
| O=C(N/N=C/c1cc(F)c(F)cc1Cl)N1CCc2ncnc(Nc3ccc(F)c(Cl)c3)c2C1 | 46.1 | 10.4 | 7.55 | 7.33 | 65 to 83 | IC50 [11]: 38.4 nM; IC50 [9]: 170 nM; IC50 [10]: 42.3 nM; IC50 [12]: 1910 nM |
| O=C(N/N=C/c1ccc(F)cc1)N1CCc2ncnc(Nc3cccc(C(F)(F)F)c3)c2C1 | 55.6 | 4.23 | 6.37 | 4 | – | – |
| O=C(N/N=C/c1ccc(C(F)(F)F)cc1)N1CCc2ncnc(Nc3ccc(F)c(Cl)c3)c2C1 | 36.8 | 36.4 | 37.8 | 21.4 | 65 to 83 | Activity [6]: 3.87 µM; Activity [7]: 2.1 µM; Activity [5]: 0.79 µM |
| O=C(N/N=C/c1cccc([N+](=O)[O-])c1)N1CCc2ncnc(Nc3ccc(F)c(Cl)c3)c2C1 | 86.9 | 34.8 | 43.1 | > 200 | – | – |
| Cc1ccc(/C=N/NC(=O)N2CCc3ncnc(Nc4cccc(C(F)(F)F)c4)c3C2)cc1 | 21.3 | 2.91 | 4.96 | 3.43 | 77 | inhibition [13]: Dose-dependent effect; inhibition at 5 µg/mL [14]: 54%; IC50 [11]: 29.1 nM; inhibition at 5 µg/mL [15]: 65%; inhibition [16]: Dose-dependent effect; inhibition at 10 µg/mL [17]: 86%; inhibition at 2.5 µg/mL [18]: 37%; inhibition at 10 µg/mL [19]: 72%; IC50 [9]: 152 nM; IC50 [10]: 24.2 nM; inhibition at 2.5 µg/mL [20]: 46%; IC50 [12]: 1490 nM; Activity [5]: 1.05 µM; IC50 [21]: 3220 nM |
| O=C(N/N=C/c1ccc(Br)cc1)N1CCc2ncnc(Nc3cccc(Br)c3)c2C1 | 51 | 6.93 | 6.56 | 23.6 | 65 to 83 | inhibition [6]: Active; inhibition [7]: Active; inhibition [5]: Active |
| O=C(N/N=C/c1ccco1)N1CCc2ncnc(Nc3cccc(Br)c3)c2C1 | > 200 | > 200 | 47.1 | 65.7 | – | – |
| O=C(N/N=C/c1cccs1)N1CCc2ncnc(Nc3cccc(Br)c3)c2C1 | 122 | > 200 | 50.2 | > 200 | 65 to 83 | Activity [5]: <1.9 µM |
| O=C(N/N=C/c1ccc(C(F)(F)F)cc1)N1CCc2ncnc(Nc3cccc(C(F)(F)F)c3)c2C1 | – | – | – | – | 65 to 83 | – |
| O=C(N/N=C/c1cccnc1)N1CCc2ncnc(Nc3cccc(Br)c3)c2C1 | > 200 | > 200 | 72.1 | > 200 | – | – |
| O=C(CCc1nc2ccccc2s1)N1CCc2ncnc(Cc3ccc(F)cc3)c2C1 | – | – | – | – | 68 | IC50 [11]: 10.4 nM; IC50 [22]: 2.59 nM |
| Cc1ccc(/C=N/NC(=O)N2CCc3ncnc(Nc4ccc(F)c(Cl)c4)c3C2)cc1C | 6.83 | 11.5 | 15.6 | 18.1 | – | – |
| O=C(N/N=C/c1ccc(Br)cc1)N1CCc2ncnc(Nc3cccc(C(F)(F)F)c3)c2C1 | 61.4 | 16.8 | 11.5 | 11.4 | 65 to 83 | – |
| O=C(N/N=C/c1cccs1)N1CCc2ncnc(Nc3cccc(C(F)(F)F)c3)c2C1 | 169 | 24.6 | 42.4 | 36.4 | 65 to 83 | Activity [5]: <1.9 µM |
| O=C(N/N=C/c1ccc(F)cc1)N1CCc2ncnc(Nc3ccc(F)c(Cl)c3)c2C1 | 64.5 | 16.9 | 11.4 | 10.8 | – | – |
| CSc1ccc(/C=N/NC(=O)N2CCc3ncnc(Nc4ccc(F)c(Cl)c4)c3C2)cc1 | – | – | – | – | 65 to 83 | Activity [5]: <1.9 µM |
| O=C(N/N=C/c1ccc(F)cc1Cl)N1CCc2ncnc(Nc3cccc(Br)c3)c2C1 | 15.7 | 0.99 | 1.61 | 1.71 | – | Ratio IC50 [23]: 3.3; inhibition [6]: Active; Ratio IC50 [24]: 6.1; Ratio IC50 [25]: 7.6; IC50 [9]: 133 nM; IC50 [10]: 18 nM; inhibition [7]: Active; inhibition [5]: Active; IC50 [21]: 940 nM |
| O=C(N/N=C/c1ccc(Br)cc1)N1CCc2ncnc(Nc3ccc(F)c(Cl)c3)c2C1 | > 200 | 13.5 | 14.1 | 12.1 | 65 to 83 | – |
